Values after ≈ are worked out from the molar mass of the structure shown.
Key:
[1] = Metabolic stability test (pooled human liver microsome); assay type: in vitro ADME; details: percentage of test compound remained after 30 minutes, pooled human liver microsome 0.5 mg protein/mL, 1 mmol/L NADPH, 37° C.; for hLMS_ox(at 0.5 μM) %: compound 0.5 μM
How it was run: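 Pooled human liver microsomes (0.5 mg protein/mL) incubated with compound and 1 mmol/L NADPH at 37° C. in pH 7.4 Tris buffer for 0 or 30 min. Parent quantified by LC/MS/MS after methanol/acetonitrile quench; value is % remaining at 30 min versus 0 min.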

PI3Kγ = PI3Kγ (Homo sapiens, UniProt P48736); experiment: PI3Kγ inhibitory activity (PI3-kinase HTRF assay, inhibition ratio); assay type: biochemical; details: 0.5 h, compound at 10 μmol/L; read-out: PI3Kg Inhibition Ratio % (10 μM)
Sequence of PI3Kγ (P48736 whole entry, species assumed): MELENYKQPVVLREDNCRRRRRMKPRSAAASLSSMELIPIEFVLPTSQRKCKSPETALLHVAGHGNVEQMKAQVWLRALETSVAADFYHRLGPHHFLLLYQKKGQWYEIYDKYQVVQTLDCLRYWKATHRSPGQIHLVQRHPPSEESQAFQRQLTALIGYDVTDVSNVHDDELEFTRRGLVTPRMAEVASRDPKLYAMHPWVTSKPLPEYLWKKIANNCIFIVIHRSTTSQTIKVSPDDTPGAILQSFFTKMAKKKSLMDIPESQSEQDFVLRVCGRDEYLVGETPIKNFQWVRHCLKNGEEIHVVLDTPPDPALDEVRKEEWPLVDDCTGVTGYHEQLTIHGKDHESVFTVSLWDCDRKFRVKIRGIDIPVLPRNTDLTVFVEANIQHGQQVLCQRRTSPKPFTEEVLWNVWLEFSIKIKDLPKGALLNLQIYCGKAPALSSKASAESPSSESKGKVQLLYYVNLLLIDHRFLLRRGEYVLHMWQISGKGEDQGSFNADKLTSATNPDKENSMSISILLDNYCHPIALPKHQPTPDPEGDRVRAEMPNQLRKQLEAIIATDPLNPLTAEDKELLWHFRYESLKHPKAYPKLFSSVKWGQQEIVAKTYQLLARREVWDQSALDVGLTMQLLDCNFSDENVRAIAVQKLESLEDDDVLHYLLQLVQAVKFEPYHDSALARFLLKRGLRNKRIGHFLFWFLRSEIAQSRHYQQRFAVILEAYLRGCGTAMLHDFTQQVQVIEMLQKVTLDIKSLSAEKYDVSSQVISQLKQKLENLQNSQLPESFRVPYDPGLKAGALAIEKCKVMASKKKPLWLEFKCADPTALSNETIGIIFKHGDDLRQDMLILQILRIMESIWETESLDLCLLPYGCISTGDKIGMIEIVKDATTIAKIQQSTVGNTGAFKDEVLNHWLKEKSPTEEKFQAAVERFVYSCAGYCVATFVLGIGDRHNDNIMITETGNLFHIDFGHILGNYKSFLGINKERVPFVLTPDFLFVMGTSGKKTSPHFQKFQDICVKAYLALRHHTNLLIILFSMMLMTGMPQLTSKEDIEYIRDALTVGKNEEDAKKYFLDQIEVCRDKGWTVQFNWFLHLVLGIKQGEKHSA
How it was run: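 Compound at 10 μmol/L preincubated 10 min with PI3Kγ and PIP2 substrate, then reacted with ATP for 30 minutes at room temperature; the compound, substrate and ATP figures as printed (40 μmol/L each) are solution concentrations. HTRF 665/620 nm ratio read after 18 hours. Inhibition ratio calculated against no-compound (100%) and no-enzyme (0%) controls.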

[2] = Solubility test (artificial intestinal juice pH 6.8, 1% DMSO); assay type: physicochemical; details: artificial intestinal juice pH 6.8 with 1% DMSO, fassgf or other biorelevant, kinetic from dmso stock, 25° C.
Protocol: The solubility of a compound was determined under a condition in which 1% DMSO was added. 10 mmol/L compound solution was prepared using DMSO, and then 6 μL of the compound solution was added to 594 μL of artificial intestinal juice in pH 6.8 (to 250 mL of 0.2 mol/L potassium dihydrogen phosphate reagent solution was added 118 mL of 0.2 mol/L NaOH reagent solution and water to provide a final volume of 1000 mL). After standing at 25° C. for 16 hours, the mixed solution was filtered with suction. The filtrate was diluted twice with methanol/water (1/1), and then a concentration in the filtration was measured with HPLC or LC/MS/MS by the absolute calibration method.

hERG channel (IKr) = biological target: T1, hERG channel (IKr) (Homo sapiens, UniProt Q12809); experiment: hERG test (whole-cell patch-clamp, IKr in HEK293 cells); assay type: cell-based; details: human, HEK293 cells expressing hERG channel, pH 7.4, inhibition of maximum tail current (IKr), compound 1 μM
T1 construct: expressed in transfected cells; host or cells: HEK293
T1 sequence (Q12809 whole entry): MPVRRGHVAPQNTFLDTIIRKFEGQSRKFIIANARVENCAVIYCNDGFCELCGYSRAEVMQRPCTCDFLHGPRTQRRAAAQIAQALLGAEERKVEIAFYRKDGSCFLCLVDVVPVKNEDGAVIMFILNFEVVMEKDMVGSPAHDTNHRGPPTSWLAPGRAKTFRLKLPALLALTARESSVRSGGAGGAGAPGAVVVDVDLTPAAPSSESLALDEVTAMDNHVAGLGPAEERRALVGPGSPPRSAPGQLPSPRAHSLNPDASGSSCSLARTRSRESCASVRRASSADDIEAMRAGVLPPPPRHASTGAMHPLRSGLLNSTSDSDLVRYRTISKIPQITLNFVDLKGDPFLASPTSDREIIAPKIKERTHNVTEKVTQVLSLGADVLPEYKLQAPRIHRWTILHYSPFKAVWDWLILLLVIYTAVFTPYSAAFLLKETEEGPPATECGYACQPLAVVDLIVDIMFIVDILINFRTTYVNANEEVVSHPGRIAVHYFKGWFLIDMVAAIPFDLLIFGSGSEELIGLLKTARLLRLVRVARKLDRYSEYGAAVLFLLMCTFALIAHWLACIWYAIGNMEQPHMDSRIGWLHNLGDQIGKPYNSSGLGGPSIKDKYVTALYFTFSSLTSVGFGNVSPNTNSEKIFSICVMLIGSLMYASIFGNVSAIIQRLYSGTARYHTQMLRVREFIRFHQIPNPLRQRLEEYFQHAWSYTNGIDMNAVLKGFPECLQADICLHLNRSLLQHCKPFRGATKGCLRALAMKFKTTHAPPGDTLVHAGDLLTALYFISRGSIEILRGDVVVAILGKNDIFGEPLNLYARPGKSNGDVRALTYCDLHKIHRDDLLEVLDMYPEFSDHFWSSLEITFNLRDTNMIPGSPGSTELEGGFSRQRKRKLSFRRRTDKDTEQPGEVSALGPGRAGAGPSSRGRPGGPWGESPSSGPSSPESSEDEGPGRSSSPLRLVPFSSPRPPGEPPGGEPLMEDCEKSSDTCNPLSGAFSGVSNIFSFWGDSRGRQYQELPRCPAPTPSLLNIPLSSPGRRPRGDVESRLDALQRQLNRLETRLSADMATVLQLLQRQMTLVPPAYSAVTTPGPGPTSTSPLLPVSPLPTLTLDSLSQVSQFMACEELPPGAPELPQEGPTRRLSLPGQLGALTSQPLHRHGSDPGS
How it was run: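 hERG-expressing HEK293 cells, automated whole-cell patch clamp: hold −80 mV, +50 mV for 2 s, then −50 mV for 2 s to record IKr tail current. Compound in extracellular solution (pH 7.4) for 10 min at room temperature; inhibition of maximum tail current calculated versus pre-application and compared with 0.1% DMSO vehicle.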

AKT phosphorylation = AKT phosphorylation inhibitory activity in MCP-1 stimulated THP-1 cells (sandwich ELISA); assay type: cell-based, Human; details: Homo sapiens, compound at 1 μmol/L, MCP-1 stimulation, read-out: AKT phosphorylation inhibition ratio
How it was run: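 THP-1 cells (6.7×10^6/mL in HBSS) were preincubated with compound at 1 μmol/L for 5 min at 37 °C, then stimulated for 60 s with HBSS containing 1.2 μg/mL MCP-1 and lysed. Phospho-Akt Ser473/AKT1 sandwich ELISA was read at A450. % inhibition: no compound = 100% activity, no MCP-1 = 0%.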

CYP3A4 = biological target: T2, CYP3A4 (Homo sapiens, UniProt P08684); experiment: CYP3A4 fluorescence MBI test; assay type: in vitro ADME; details: difference in IC50 with 0 or 30 minutes pre-reaction; CYP3A4 expressed in E. coli, substrate 7-BFC
T2 construct: host or cells: E. coli
T2 sequence (P08684 whole entry): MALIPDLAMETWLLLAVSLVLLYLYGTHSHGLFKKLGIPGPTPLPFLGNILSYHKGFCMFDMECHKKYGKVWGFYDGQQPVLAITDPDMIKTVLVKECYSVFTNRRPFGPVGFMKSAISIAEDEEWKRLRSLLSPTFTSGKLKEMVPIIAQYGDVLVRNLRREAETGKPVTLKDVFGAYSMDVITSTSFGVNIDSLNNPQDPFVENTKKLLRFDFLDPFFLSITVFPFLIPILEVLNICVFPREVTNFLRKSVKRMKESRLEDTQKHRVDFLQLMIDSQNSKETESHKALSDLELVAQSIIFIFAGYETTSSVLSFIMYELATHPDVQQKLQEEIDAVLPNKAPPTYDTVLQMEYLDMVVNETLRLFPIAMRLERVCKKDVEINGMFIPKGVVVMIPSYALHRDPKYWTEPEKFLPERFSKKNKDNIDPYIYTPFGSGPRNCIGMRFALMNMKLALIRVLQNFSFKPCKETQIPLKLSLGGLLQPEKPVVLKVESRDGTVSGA
How it was run: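 E. coli-expressed CYP3A4 debenzylating 5.6 μmol/L 7-BFC to fluorescent 7-HFC (Ex 420/Em 535 nm) in K-Pi pH 7.4 at 25° C, 15 min reaction. NADPH pre-incubation of 0 or 30 min, with 10-fold dilution before reaction. IC50 from 0.625–20 μmol/L (6 points); (+) for an IC50 shift ≥5 μmol/L, (−) for ≤3 μmol/L.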

hLMS_ox(at 2 μM) % ([1]; compound 2 μM) | inhibition at 10 µM (PI3Kγ) | solubility at 16 h [2] | hLMS_ox(at 0.5 μM) % [1] | Compound | inhibition at 10 min, 1 µM (hERG channel (IKr)) | inhibition at 1 µM (AKT phosphorylation) | MBI (CYP3A4)
103% | 72% | 12.3 µM (≈ 5.69 µg/mL) | – | COc1cc(N2CCc3nc(NC(=O)Nc4ccsc4C(=O)O)sc3C2)nc(OC)n1 [Compound I-4] | – | – | –
– | ≥ 95% | 15.4 µM (≈ 7.88 µg/mL) | – | COc1cc(N2CCc3nc(NC(=O)Nc4ccccc4C(=O)N(C)C(C)C)sc3C2)nc(OC)n1 [Compound I-13] | – | – | –
– | – | 26.3 µM (≈ 13.1 µg/mL) | – | COc1cc(N2CCc3nc(NC(=O)Nc4ccccc4OCCN(C)C)sc3C2)nc(OC)n1 [Compound I-76] | – | – | –
– | ≥ 95% | 34.4 µM (≈ 18.7 µg/mL) | 89.3% | COc1cc(N2CCc3nc(NC(=O)Nc4ccccc4OCCC(C)(C)C(=O)O)sc3C2)nc(OC)n1 [Compound I-100] | – | – | –
– | ≥ 95% | 30.1 µM (≈ 14.6 µg/mL) | 85.8% | CCNC(=O)c1ccncc1NC(=O)Nc1nc2c(s1)CN(c1cnc(OC)c(OC)c1)CC2 [Compound I-103] | 3.6% | – | –
– | – | 39.6 µM (≈ 20.3 µg/mL) | 103% | COc1cc(N2CCc3nc(NC(=O)Nc4ccccc4C(=O)NC(C)CO)sc3C2)cnc1OC (centres unmarked) [Compound I-104] | – | – | –
– | ≥ 95% | 17.5 µM (≈ 8.23 µg/mL) | 92.3% | CC(CO)NC(=O)c1ccccc1NC(=O)Nc1nc2c(s1)CN(c1ccc(F)cn1)CC2 (centres unmarked) [Compound I-120] | – | – | –
– | ≥ 95% | > 50 µM | 94.5% | COc1cc(N2CCc3nc(NC(=O)Nc4ccccc4C(=O)NC(C)CN(C)C)sc3C2)nc(OC)n1 (centres unmarked) [Compound I-137] | – | 85% | –
– | 86% | 24.9 µM (≈ 13.1 µg/mL) | 99% | COc1cc(N2CCc3nc(NC(=O)Nc4ccccc4C(=O)NCC(C)(C)O)sc3C2)nc(OC)n1 [Compound I-158] | 9.2% | ≥ 95% | –
– | ≥ 95% | 10 µM (≈ 4.53 µg/mL) | 97.9% | CC(C)NC(=O)c1ccccc1NC(=O)Nc1nc2c(s1)CN(c1cc[nH]c(=O)c1)CC2 [Compound I-178] | – | – | –
– | – | > 50 µM | – | COc1cc(N2CCc3nc(NC(=O)NN4CCC[C@H]4C(=O)NC(C)C)sc3C2)nc(OC)n1 [Compound I-179] | – | – | –
– | ≥ 95% | 19.6 µM (≈ 9.77 µg/mL) | 88.1% | COc1cc(N2CCc3nc(NC(=O)Nc4ccccc4C(=O)NN(C)C)sc3C2)nc(OC)n1 [Compound I-182] | 4.9% | ≥ 95% | –
– | 92% | 10.3 µM (≈ 4.92 µg/mL) | – | C[C@@H](CO)NC(=O)c1ccccc1NC(=O)Nc1nc2c(s1)CN(c1cncc(C#N)c1)CC2 [Compound I-189] | – | – | (−) (When 3 μmol/L or less, the compound is shown as (−))
– | 87% | 36.8 µM (≈ 15.4 µg/mL) | – | CC(=O)c1cccc(-c2cc(NC(=O)Nc3ccccc3C(=O)NC(C)C)nn2C)c1 [Compound I-227] | – | – | –

Source: patent US20120071475A1, “UREA DERIVATIVES HAVING PI3K-INHIBITING ACTIVITY” (SHIONOGI & CO., LTD., priority 2009, published 2012)
